The text below walks through data of patent US20120225885A1, “IMIDAZOLE DERIVATIVES AND METHODS OF USE THEREOF” (priority 2009, published 2012).

In the experiment the target is H3 receptor (UniProt Q9Y5N1). The experiment in a line: H3 Receptor Binding Assay. As to conditions: displacement of 3 nM [3H]R-α-methyl histamine or [3H]Nα-methyl histamine; membranes from guinea pig brain, alternatively recombinant human receptor in HEK-293 cells; 30° C., 30 minutes; read-out: H3 Ave Ki. On the procedure:
The source of the H3 receptors in this experiment was guinea pig brain. Alternatively, the source of H3 receptors was recombinant human receptor, expressed in HEK-293 (human embryonic kidney) cells.
The animals weighed 400-600 g. The brain tissue was homogenized with a solution of 50 mM Tris, pH 7.5. The final concentration of tissue in the homogenization buffer was 10% w/v. The homogenates were centrifuged at 1,000×g for 10 minutes. in order to remove clumps of tissue and debris. The resulting supernatants were then centrifuged at 50,000×g for 20 minutes in order to sediment the membranes, which were next washed three times in homogenization buffer (50,000×g for 20 minutes. each). The membranes were frozen and stored at −70° C. until needed.
Compounds of the invention to be tested were dissolved in DMSO and then diluted into the binding buffer (50 mM Tris, pH 7.5) such that the final concentration was 2 μg/ml with 0.1% DMSO. Membranes were then added (400 μg of protein, 5 μg in the case of recombinant human receptor) to the reaction tubes. The reaction was started by the addition of 3 nM [^3H]R-α-methyl histamine (8.8 Ci/mmol) or 3 nM [^3H]N^α-methyl histamine (80 Ci/mmol) and continued under incubation at 30° C. for 30 minutes. Bound ligand was separated from unbound ligand by filtration, and the amount of radioactive ligand bound to the membranes was quantitated by liquid scintillation spectrometry. All incubations were performed in duplicate and the standard error was always less than 10%. Compounds that inhibited more than 70% of the specific binding of radioactive ligand to the receptor were serially diluted to determine a Ki (nM).
In the case of `C[C@@H]1CCCN1CCc1cn2cc(Br)ccc2n1` [Compound 1], the Ki (usually a measure of affinity in units of concentration, obtained from inhibition or displacement) is 327 nM. As for `C[C@@H]1CCCN1CCc1cn2cc(-c3ccc(C#N)cc3)ccc2n1` [Compound 2], the Ki was 27 nM.

For the compound `C[C@@H]1CCCN1CCc1cn2cc(-n3ncccc3=O)ccc2n1` [Compound 3], the Ki worked out at 76.8 nM.

Consider `C[C@@H]1CCCN1CCc1cn2cc(-c3ccc(N(C)C)cc3)ccc2n1` [Compound 4], for which the Ki came out at 106 nM. Take `COc1ccc(-c2ccc3nc(CCN4CCC[C@H]4C)cn3c2)cc1` [Compound 5]: the Ki amounted to 91.8 nM. With `C[C@@H]1CCCN1CCc1cn2cc(-c3ccc(F)cc3)ccc2n1` [Compound 6], the Ki stood at 58.5 nM.

As to `C[C@@H]1CCCN1CCc1cn2cc(-c3ccc(O)cc3)ccc2n1` [Compound 7], the Ki was determined as 64.5 nM. Regarding `CC(=O)Nc1ccc(-c2ccc3nc(CCN4CCC[C@H]4C)cn3c2)cc1` [Compound 8], the Ki is 67.5 nM. `C[C@@H]1CCCN1CCc1cn2cc(-c3cccc(C#N)c3)ccc2n1` [Compound 9]: the Ki amounted to 13 nM.

For the compound `COc1ccccc1-c1ccc2nc(CCN3CCC[C@H]3C)cn2c1` [Compound 10], the inhibition constant Ki is 163 nM. For `C[C@@H]1CCCN1CCc1cn2cc(-c3ccccc3F)ccc2n1` [Compound 11], the Ki was found to be 74 nM. Then `C[C@@H]1CCCN1CCc1cn2ccc(Br)cc2n1` [Compound 12], with 101 nM. Then `C[C@@H]1CCCN1CCc1cn2ccc(-c3ccc(C#N)cc3)cc2n1` [Compound 13], with 34 nM. For `CCOc1cccc(-c2ccn3cc(CCN4CCC[C@H]4C)nc3c2)c1` [Compound 14], the Ki was 70 nM.

In the case of `C[C@@H]1CCCN1CCc1cn2ccc(-c3ccccc3F)cc2n1` [Compound 15], the Ki is 25 nM. On to `C[C@@H]1CCCN1CCc1cn2cc(-c3ccc(F)c(C#N)c3)ccc2n1` [Compound 16], for which the Ki was found to be 4 nM.

As to `C[C@@H]1CCCN1CCc1cn2cc(-c3ccc4ncccc4c3)ccc2n1` [Compound 17], the Ki came to 11.2 nM. The figure for `C[C@@H]1CCCN1CCc1cn2cc(-c3cncc(C#N)c3)ccc2n1` [Compound 18] is 38.6 nM. For the compound `C[C@@H]1CCCN1CCc1cn2ccc(-c3ccc(F)nc3)cc2n1` [Compound 19], the Ki stood at 36.5 nM. With `C[C@@H]1CCCN1CCc1cn2cc(-c3cccc4ncccc34)ccc2n1` [Compound 20], the inhibition constant (Ki) worked out at 104 nM. In the case of `C[C@@H]1CCCN1CCc1cn2cc(-c3ccc4[nH]ccc4c3)ccc2n1` [Compound 21], the Ki worked out at 459 nM. Regarding `C[C@@H]1CCCN1CCc1cn2cc(-c3ccc(=O)n(C)c3)ccc2n1` [Compound 22], the Ki amounted to 69 nM.

On to `C[C@@H]1CCCN1CCc1cn2cc(-c3cnc(N)c(C#N)c3)ccc2n1` [Compound 23], for which the Ki stood at 22 nM. Turning to `C[C@@H]1CCCN1CCc1cn2cc(-c3cncnc3)ccc2n1` [Compound 24], the Ki is 366 nM. For `C[C@@H]1CCCN1CCc1cn2cc(-c3cnc(N)cn3)ccc2n1` [Compound 25], the Ki was 246 nM. The figure for `Cc1nnc2ccc(-c3ccc4nc(CCN5CCC[C@H]5C)cn4c3)cn12` [Compound 26] is 7.1 nM.
